Data set [1] deals with T1, Vaccinia topoisomerase (type Ib) (Vaccinia virus, UniProt P68698).
T1 construct: made in house; host or cells: Escherichia coli BL21 infected with bacteriophage λCE6
Put plainly: biochemical. It counts as biochemical.

Data set [2] concerns the target T1, Vaccinia topoisomerase (type Ib). Nature of the data set: biochemical. To be noted: peptide concentrations up to 42 μM.
The target in data set [3] is T2, E. coli topoisomerase I (type Ia) (Escherichia coli, UniProt P06612).
T2 sequence (P06612 1-865): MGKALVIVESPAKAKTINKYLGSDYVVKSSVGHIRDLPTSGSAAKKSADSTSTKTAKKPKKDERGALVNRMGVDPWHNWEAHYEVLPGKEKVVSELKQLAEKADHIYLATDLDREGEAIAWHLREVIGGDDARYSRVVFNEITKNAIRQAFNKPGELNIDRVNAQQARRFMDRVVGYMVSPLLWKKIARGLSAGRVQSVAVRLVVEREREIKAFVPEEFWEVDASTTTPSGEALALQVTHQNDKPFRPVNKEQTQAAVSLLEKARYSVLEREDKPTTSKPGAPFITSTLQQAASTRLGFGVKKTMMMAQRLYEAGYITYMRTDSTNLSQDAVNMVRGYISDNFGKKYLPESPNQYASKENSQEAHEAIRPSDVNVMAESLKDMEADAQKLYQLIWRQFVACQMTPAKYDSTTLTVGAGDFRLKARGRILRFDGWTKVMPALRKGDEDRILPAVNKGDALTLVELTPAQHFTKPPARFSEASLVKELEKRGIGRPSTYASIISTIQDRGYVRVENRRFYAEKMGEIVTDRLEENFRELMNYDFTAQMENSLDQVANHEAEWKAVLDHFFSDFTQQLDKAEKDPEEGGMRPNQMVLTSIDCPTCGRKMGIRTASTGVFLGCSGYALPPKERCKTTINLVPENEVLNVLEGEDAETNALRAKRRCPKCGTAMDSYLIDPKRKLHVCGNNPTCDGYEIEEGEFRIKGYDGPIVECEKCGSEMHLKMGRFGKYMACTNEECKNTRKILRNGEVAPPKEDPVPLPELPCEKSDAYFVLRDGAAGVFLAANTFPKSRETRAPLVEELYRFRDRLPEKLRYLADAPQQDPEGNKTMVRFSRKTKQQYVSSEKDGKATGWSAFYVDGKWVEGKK
Nature of the data set: biochemical. To be noted: peptide concentrations up to 42 μM. An excerpt:
E. coli topoisomerase I (TopA) exemplifies the type IA topoisomerase family. Type IA enzymes are mechanistically and structurally unrelated to the topoisomerase IB/tyrosine recombinase superfamily of DNA strand transferases.

Data set [4] deals with T3, Lambda integrase (Int) (Bacteriophage lambda) (UniProt P03700).
T3 sequence: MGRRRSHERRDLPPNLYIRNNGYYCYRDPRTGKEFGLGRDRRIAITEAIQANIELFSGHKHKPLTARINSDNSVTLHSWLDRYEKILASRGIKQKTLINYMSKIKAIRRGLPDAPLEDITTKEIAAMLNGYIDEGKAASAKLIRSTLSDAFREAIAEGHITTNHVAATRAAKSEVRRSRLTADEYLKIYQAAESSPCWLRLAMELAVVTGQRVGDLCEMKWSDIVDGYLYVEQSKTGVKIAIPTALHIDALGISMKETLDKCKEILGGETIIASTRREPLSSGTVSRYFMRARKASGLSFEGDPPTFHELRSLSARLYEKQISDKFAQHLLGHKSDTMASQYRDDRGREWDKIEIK
Nature of the data set: cleavage_in_vitro.

WCHYNY: the “effect on transesterification (DNA cleavage)” value in data set [1] is listed as “did not inhibit transesterification”. Also, the “effect on DNA relaxation” value in data set [2] and in data set [3] was “no effect” throughout.
As for attL + attR excision substrates, the activity in data set [4] (excision with IHF and Xis, no peptide) is greater than 70%.
For the substance “excision Holliday junction (attL x attR)”, the activity in data set [4] (Int alone HJ resolution, binds weakly alone, 42.4% with IHF, 14.4% with Xis, 58.2% with IHF+Xis, 95.3% with IHF+Xis no spermidine) was 7.2%.

(Values after US20040002441A1, “Recombination modulators and methods for producing and using the same” (priority 2000, published 2004).)
